Patent EP0910652B1, “HORMONE-MEDIATED METHODS FOR […] EXOGENOUS GENES IN MAMMALIAN SYSTEMS, AND PRODUCTS RELATED THERETO” (THE SALK INSTITUTE FOR BIOLOGICAL STUDIES, priority 1996, dated 1997)

Columns and labels:
[1] = tested on: ecdysone receptor (EcR) with its natural heterodimeric partner USP; experiment: Transient transfection reporter assay in CV-1 cells, muristerone responsiveness; assay type: cell-based; conditions: 1µM muristerone A vs ethanol
Protocol: (§1) CV-1 cells were maintained in DMEM supplemented with 10% Fetal Bovine Serum. Transient transfections were performed using DOTAP transfection reagent (Boehringer-Mannheim). Transfections using ß-galactosidase as the reporter were assayed either by Galactolight luminescent assay (Tropix, Bedford, MA) or by standard liquid ONPG assay (Sigma, St. Louis, MO). The values were normalized by co-transfection of CMX-luciferase. Transfections using luciferase as the reporter were assayed by standard techniques using luciferin and ATP. These values were normalized by co-transfection of CMX-ß-galactosidase. Hormone treated cells were treated with ethanol, 50 µM Juvenile Hormone III (Sigma), 1µM muristerone A (Zambon, Bresso, IT), or 1µM dexamethasone (Sigma) unless otherwise noted.
(§2) To maximize the sensitivity of the invention ecdysone inducible system, modifications of the ecdysone receptor were made. The N-terminal transactivation domain of the ecdysone receptor was replaced by the corresponding domain of the glucocorticoid receptor (GR), resulting in the modified ecdysone receptor GEcR (See Figure 1D). CV-1 cells were transfected with the plasmid CMX-GEcR encoding the modified ecdysone receptor as discussed above. After transfection, cells were either treated with ethanol or 1µM muristerone A. This hybrid modified ecdysone receptor boosted muristerone responsiveness from 3- to 11-fold in a transient transfection assay (Fig. 1A).

[2] = tested on: modified ecdysone receptor GEcR (SEQ ID NO:9) with retinoid X receptor (RXR); experiment: as above; assay type: cell-based; conditions: 1µM muristerone A vs ethanol
Protocol: as §1, §2

[3] = tested on: modified ecdysone receptor GEcR (SEQ ID NO:9; N-terminal transactivation domain of GR, DNA- and ligand-binding domains of EcR) with USP; experiment: as above; assay type: cell-based; conditions: 1µM muristerone A vs ethanol
Protocol: as §1, §2

[4] = tested on: modified ecdysone receptor VpEcR (SEQ ID NO:7; N-terminal truncation of EcR fused to VP16 activation domain) with RXR; experiment: as above; assay type: cell-based; conditions: 1µM muristerone A vs no hormone
Protocol: as §1

[5] = tested on: VpEcR (SEQ ID NO:7) with RXR (CMX-hRXRa) in N13 cells; experiment: Ecdysone responsiveness in stable cell line N13 (293 cells), ß-galactosidase and luciferase reporters; assay type: cell-based; conditions: 36 hours
Protocol: Stable cell lines were generated containing the modified ecdysone receptor VpEcR, a heterodimeric partner (RXR), and an ecdysone inducible reporter (Figure 2). 293 cells were transfected with the following linearized plasmids, pRC-ESHß, EcREx5-ΔMTV-Luc, CMX-VpEcR, and CMX-hRXRa. The following day, the cells were split 1:10 and were allowed to recover one day prior to selection with 1mg/ml G418 (GIBCO). After 14 days of selection, 14 individual clones were isolated and grown separately in the presence of 0.5mg/ml G418.
One of these cell lines, N13, was grown in the presence or absence of 1µM muristerone for 20 hours. Cell lysates were then assayed for ß-galactosidase and luciferase activities as described in Example 1. X-gal staining was performed on the stable cell lines. Cells were fixed briefly with 10% formaldehyde in PBS and then stained with X-Gal (Molecular Probes, Eugene, OR) for 2 to 6 hours. After 24 hours of treatment with 1µM muristerone, 100% of the cells turned dark blue after 3 hours of staining. Thus, mammalian cells containing the modified ecdysone receptor VpEcR, a heterodimeric partner (RXR), and a reporter gene construct regulated by a modified ecdysone response element, function to efficiently express an exogenous gene in response to a ligand, e.g., ecdysone. […]
Finally, the kinetics of muristerone mediated induction was measured. […]

[6] = tested on: adult mice; experiment: Toxicity study in adult mice; assay type: in vivo; conditions: 20mg muristerone A in sesame oil, intraperitoneal, observed approximately two months
Protocol: In order to use muristerone as a potential hormone in mice, its toxicity and bioavailability was examined. For toxicity studies, adult mice were injected intraperitonealy with 20mg of muristerone A suspended in sesame oil. The mice were then observed for approximately two months. […] In addition to the inert qualities of muristerone (an ecdysone), overexpression of VpEcR and RXR appears not to be toxic.

[7] = tested on: pregnant mice; experiment: Teratogenic study in pregnant mice; assay type: in vivo; conditions: 20mg muristerone A in sesame oil, mother and pups observed for three months
[8] = tested on: CV-1 cells transfected with CMX-GEcR, CMX-hRXRa, and EcREx5-DMTV-Luc; experiment: Muristerone bioavailability: serum of injected mice tested on transfected CV-1 cells; assay type: in vivo
Protocol: For muristerone bioavailability studies, adult mice were injected intraperitoneally with sesame oil with or without 10mg of muristerone, and were subsequently sacrificed for serum collection. After twelve hours, blood was drawn from the mice, and the serum was isolated by brief centrifugation of the whole blood. In order to conduct transfection assays to test for muristerone activity, serum from sesame oil injected mice was divided, and half was supplemented with muristerone to a final concentration of 10µM. The three batches of mouse serum were diluted 1:10 in DMEM and placed onto CV-1 cells transfected with CMX-GEcR, CMX-hRXRa, and EcREx5-DMTV-Luc.

[9] = tested on: VpEcR and RXR (CD3-VpEcR; CD3-RXR) with ecdysone inducible reporter ESHß; experiment: Muristerone dependent gene expression in receptor/reporter transgenic mice, Northern blot; assay type: in vivo; conditions: 10mg muristerone intraperitoneal, RNA isolated 48 hours after treatment
Protocol: To produce transgenic mice, the following DNA constructs were prepared and subsequently injected into fertilized eggs: CD3-VpEcR, CD3-RXR, ESHß (Lee et al., J. Exp. Med. 175:1013-1025 (1992)). Two separate lines of transgenic mice were generated harboring either an ecdysone inducible reporter, ESHß, or a T-cell specific expression construct of VpEcR and RXR, respectively. The former are referred to as reporter mice, the latter are referred to as receptor mice, and double transgenic mice are referred to as receptor/reporter mice. Constructs CD3-VpEcR and CD3-RXR were mixed and coinjected, while ESHß was injected alone. Primary genotyping was performed by Southern blot analysis and the transmission of transgenic mice was monitored by dot blot analysis. Receptor mice were analyzed for VpEcR and RXR expression by Northern blot analysis of RNA collected from these mice. For Northern blot analysis, 15µg of total RNA obtained from the thymus, and various tissues as a control, was run on a denaturing gel and blotted onto a nitrocellulose membrane. The blot was probed with a radiolabeled ß-gal-specific probe and exposed on film for 2 days. These receptor mice were healthy, fertile, and appeared normal by visual inspection. In addition, the transgene was transferred to the offspring as expected by Mendelian genetics. […]

## CC(C)CC[C@@H](O)[C@](C)(O)[C@H]1CC[C@@]2(O)C3=CC(=O)[C@]4(O)C[C@@H](O)[C@@H](O)C[C@]4(C)[C@H]3[C@H](O)C[C@]12C [muristerone A]
[1]
  muristerone responsiveness (induction): 3 fold
[2]
  induction: 34 fold
[3]
  muristerone responsiveness (induction): 11 fold
[4]
  induction: 212 fold
[5]; final concentration 10µM muristerone, ß-galactosidase and luciferase reporters
  inducibility: ~3 orders of magnitude
[5]; muristerone concentrations as low as 100nM
  induction: One-hundred
[6]
  toxicity: neither toxic
[7]
  teratogenicity: neither toxic, teratogenic
[8]; 10mg muristerone intraperitoneal, serum after twelve hours, diluted 1:10 in DMEM
  luciferase activity of serum from muristerone treated mice: comparable to that seen from untreated mouse serum supplemented with 1µM muristerone
[8]; injected into mice
  activity when injected into mice: maintains its activity
  inactivation by serum binding proteins: nor inactivated by serum binding proteins
[8]; mouse serum
  blunting of activity due to association with serum proteins: little or no blunting of activity
[9]
  induction from an ecdysone inducible promoter in the thymus: significant induction
